Experimental data published in paper PMC7018657, “Molecular Determinants of Substrate Selectivity of a Pneumococcal Rgg-Regulated Peptidase-Containing ABC Transporter” (mBio, 2020).

Legend:
Type in all cases: cell-based, Streptococcus pneumoniae R6
Settings in all cases: signal sequence (wild type or mutated) fused to BlpI-HiBiT cargo peptide; R6; CDM+; CSP, BlpC and RtgSA-C10 treatment; 3 independent experiments
RtgAB = assay: HiBiT peptide secretion assay, RtgAB+ strain
Experimental: FIG 3 RtgAB secretes RtgC and RtgG. R6 ComAB^−/BlpAB^−/RtgAB^− and ComAB^−/BlpAB^−/RtgAB^+ strains expressing RtgC-HiBiT (A) or RtgG-HiBiT (B) were grown in CDM+ to an OD620 of 0.05 and treated with 200 ng/ml CSP, 200 ng/ml BlpC, and 20 nM RtgSA-C10. CSP and BlpC were added to allow for comparison with ComAB^+ and BlpAB^+ strains in later experiments. Samples were taken every 30 min, and extracellular HiBiT signal was quantified. Data are presented as fold change values relative to the ComAB^−/BlpAB^−/RtgAB^− control. Red dashed lines represent fold change = 1 (no difference versus the control). […]
FIG 5 RtgAB secretes different GG peptides from ComAB and BlpAB. […] Samples were taken every 30 min, and extracellular HiBiT signal was quantified. […]
(§1) Cells were inoculated from starter cultures to an OD620 of 0.005 and grown in CDM+. […] Samples were taken for HiBiT quantification at appropriate time points. […] HiBiT signal was quantified by mixing samples with HiBiT extracellular detection reagent (N2421; Promega) at a 1:1 ratio and reading luminescence with a Synergy HTX plate reader. Samples were also taken for quantification of intracellular peptide; for endpoint assays, they were taken concurrently with the extracellular samples, and for time course assays, they were taken at the last time point. […]
(§2) and read 5 min following reagent addition. […]

ComAB = assay: HiBiT peptide secretion assay, ComAB+ strain
Experimental: (§3) FIG 5 RtgAB secretes different GG peptides from ComAB and BlpAB. R6 ComAB^−/BlpAB^−/RtgAB^− and single-transporter-positive ComAB^+, BlpAB^+, and RtgAB^+ strains expressing RtgC-HiBiT (A), RtgG-HiBiT (B), or BlpI-HiBiT (C) were grown in CDM+ to an OD620 of 0.05 and treated with 200 ng/ml CSP, 200 ng/ml BlpC, and 20 nM RtgSA-C10. Samples were taken every 30 min, and extracellular HiBiT signal was quantified. Data are presented as fold change values relative to the ComAB^−/BlpAB^−/RtgAB^− control. Red dashed lines represent fold change = 1 (no difference versus the control). Plots show means ± SEs from 3 independent experiments.
as §1, with “point. Extracellular peptide was removed from these samples by proteinase K digestion, and then the cells were lysed and HiBiT signal was quantified as described above.” for “point.”
as §2

BlpAB = assay: HiBiT peptide secretion assay, BlpAB+ strain
Experimental: as §3
as §1, with “point. Extracellular peptide was removed from these samples by proteinase K digestion, and then the cells were lysed and HiBiT signal was quantified as described above.” for “point.”
as §2

## MELILPNNYVDLEQEEMMYLDGG [SSRtgG]
RtgAB
  secretion through RtgAB, BlpI cargo peptide: promotes secretion of the BlpI cargo peptide through RtgAB
ComAB
  secretion through ComAB, BlpI cargo peptide: preventing its secretion through ComAB and BlpAB
BlpAB
  secretion through BlpAB, BlpI cargo peptide: preventing its secretion through ComAB and BlpAB
